Experiments:
[1] = system: HBV (HepG2.117 cell line, inducibly HBV producing); test: Anti-HBV activity: intracellular HBV DNA by real-time PCR in HepG2.117 cells after 3 days of treatment; assay type: cell-based, hepatitis B virus; conditions: Hepatitis B virus, HepG2.117, 72 h, HepG2.117 cells, 3 days of treatment, intracellular HBV DNA by real-time PCR; mean value; read-out: EC50 (μM, mean value)
Procedure, shortened: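 Read-out is intracellular HBV DNA, measured by real-time PCR using HBV-specific primers and probe. Cells were stable, inducible HBV-producing HepG2.117 (Tet-off). Serially diluted compound was applied for 3 days after replication was induced.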

in vitro = assay type: cell-based; conditions: human, HepG2 or HepG2.117 cells, 3-days incubation (unmarked values), ATPlite; mean value
Procedure, shortened: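 Luminescent ATP quantitation served as the viability endpoint following a 3- or 4-day incubation with test compounds.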

| Structure (SMILES) | EC50 [1] [µM] | CC50 at 3 days (in vitro) [µM] |
| --- | --- | --- |
| CNC(=O)c1cc(Cl)c(-n2c(NC(C)C)nc3c(c2=O)C[C@@H](C)N(C(=O)c2ccc(Cl)c(Cl)c2)C3)cc1OC [Compound C322, 5-chloro-4-[(6R)-7-(3,4-dichlorobenzoyl)-6-methyl-4-oxo-2-[(propan-2-yl)amino]-5,6,7,8-tetrahydropyrido[3,4-d]pyrimidin-3(4H)-yl]-2-methoxy-N-methylbenzamide] | 0.28 | 24.2 |
| CC(C)Nc1nc2c(c(=O)n1-c1cccc3c1CNC3=O)C[C@@H](C)N(C(=O)c1ccc(Cl)c(Cl)c1)C2 [Compound C323, (6R)-7-(3,4-dichlorobenzoyl)-6-methyl-3-(1-oxo-2,3-dihydro-1H-isoindol-4-yl)-2-[(propan-2-yl)amino]-5,6,7,8-tetrahydropyrido[3,4-d]pyrimidin-4(3H)-one] | 0.35 | > 50 |
| Cc1nc(-c2ccc(-n3c(NC(C)C)nc4c(c3=O)C[C@@H](C)N(C(=O)c3ccc(Cl)c(Cl)c3)C4)c(Cl)c2)c[nH]1 [Compound C324, (6R)-3-[2-chloro-4-(2-methyl-1H-imidazol-4-yl)phenyl]-7-(3,4-dichlorobenzoyl)-6-methyl-2-[(propan-2-yl)amino]-5,6,7,8-tetrahydropyrido[3,4-d]pyrimidin-4(3H)-one] | 0.41 | > 50 |
| CNC(=O)c1ccc(-n2c(NCc3ccc4cc[nH]c4c3)nc3c(c2=O)C[C@@H](C)N(C(=O)c2ccc(Cl)c(Cl)c2)C3)cc1 [Compound C325, 4-[(6R)-7-(3,4-dichlorobenzoyl)-2-{[(1H-indol-6-yl)methyl]amino}-6-methyl-4-oxo-5,6,7,8-tetrahydropyrido[3,4-d]pyrimidin-3(4H)-yl]-N-methylbenzamide] | 0.42 | 22.8 |
| CNC(=O)c1ccc(-n2c(N[C@H](C)CCO)nc3c(c2=O)C[C@@H](C)N(C(=O)c2ccc(Cl)c(Cl)c2)C3)cc1 [Compound C326, 4-[(6R)-7-(3,4-dichlorobenzoyl)-2-{[(2R)-4-hydroxybutan-2-yl]amino}-6-methyl-4-oxo-5,6,7,8-tetrahydropyrido[3,4-d]pyrimidin-3(4H)-yl]-N-methylbenzamide] | 0.46 | > 50 |
| CNC(=O)c1ncc(-n2c(NC)nc3c(c2=O)C[C@@H](C)N(C(=O)c2ccc(Cl)c(Cl)c2)C3)cn1 [Compound C327, 5-[(6R)-7-(3,4-dichlorobenzoyl)-6-methyl-2-(methylamino)-4-oxo-5,6,7,8-tetrahydropyrido[3,4-d]pyrimidin-3(4H)-yl]-N-methylpyrimidine-2-carboxamide] | 5.15 | > 50 |
| CNC(=O)c1ncc(-n2c(NC(C)C)nc3c(c2=O)C[C@@H](C)N(C(=O)c2ccc(Cl)c(Cl)c2)C3)cn1 [Compound C328, 5-[(6R)-7-(3,4-dichlorobenzoyl)-6-methyl-4-oxo-2-[(propan-2-yl)amino]-5,6,7,8-tetrahydropyrido[3,4-d]pyrimidin-3(4H)-yl]-N-methylpyrimidine-2-carboxamide] | 0.51 | > 50 |
| CNC(=O)c1ccc(-n2c(NC3CC3)nc3c(c2=O)C[C@@H](C)N(C(=O)c2ccc(Cl)c(Cl)c2)C3)cc1 [Compound C329, 4-[(6R)-2-(cyclopropylamino)-7-(3,4-dichlorobenzoyl)-6-methyl-4-oxo-5,6,7,8-tetrahydropyrido[3,4-d]pyrimidin-3(4H)-yl]-N-methylbenzamide] | 0.55 | > 50 |
| CNC(=O)c1ccc(-n2c(N[C@H](C)CO)nc3c(c2=O)C[C@@H](C)N(C(=O)c2ccc(Cl)c(Cl)c2)C3)cc1 [Compound C330, 4-[(6R)-7-(3,4-dichlorobenzoyl)-2-{[(2R)-1-hydroxypropan-2-yl]amino}-6-methyl-4-oxo-5,6,7,8-tetrahydropyrido[3,4-d]pyrimidin-3(4H)-yl]-N-methylbenzamide] | 0.9 | > 50 |

Reference: patent publication US20230091047A1 (priority 2019, published 2023)
